Assay results as given in patent US20070142417A1, “Substantially Pure 2-{[2-(2-Methylamino-Pyrimidin-4-YL)-1H-Indole-5-Carbonyl]-Amino}-3-Phenylpyridin-2-YL-Amino)-Propionic Acid as an IkB Kinase Inhibitor” (AVENTIS PHARMACEUTICALS INC, priority 2005, published 2007).
Like-named read-outs stand apart in the source and are kept apart here.

What was measured:
[1] = target: T1, IκB kinase (IKK enzyme preparation) (Homo sapiens, UniProt O14920); test: IKK-Enzyme ELISA; format: biochemical
T1 sequence (O14920 1-756): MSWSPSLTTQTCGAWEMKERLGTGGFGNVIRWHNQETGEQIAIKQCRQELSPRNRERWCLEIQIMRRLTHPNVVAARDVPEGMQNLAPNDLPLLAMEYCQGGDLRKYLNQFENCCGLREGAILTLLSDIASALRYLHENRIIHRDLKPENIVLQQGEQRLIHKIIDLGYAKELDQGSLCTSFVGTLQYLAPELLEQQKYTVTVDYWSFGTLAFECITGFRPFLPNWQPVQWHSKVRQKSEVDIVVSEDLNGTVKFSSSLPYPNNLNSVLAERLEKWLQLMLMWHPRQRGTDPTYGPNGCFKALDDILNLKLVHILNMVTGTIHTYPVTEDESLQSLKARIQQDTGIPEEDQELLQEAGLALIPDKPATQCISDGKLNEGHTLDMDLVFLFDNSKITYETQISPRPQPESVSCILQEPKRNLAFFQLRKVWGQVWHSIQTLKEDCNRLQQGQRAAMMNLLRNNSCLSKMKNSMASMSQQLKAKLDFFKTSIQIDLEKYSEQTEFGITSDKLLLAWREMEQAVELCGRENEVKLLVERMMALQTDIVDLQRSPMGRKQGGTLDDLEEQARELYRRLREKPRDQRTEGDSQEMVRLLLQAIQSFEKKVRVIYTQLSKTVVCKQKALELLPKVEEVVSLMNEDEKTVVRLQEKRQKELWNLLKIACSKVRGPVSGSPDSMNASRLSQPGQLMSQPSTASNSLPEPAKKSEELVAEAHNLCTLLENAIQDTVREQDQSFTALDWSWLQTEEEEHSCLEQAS
Experimental: The assay buffer has the following composition (50 mM HEPES, 10 mM MgCl2, 10 mM β-Glycerophosphate, 2 μM Microcystin-LR, 0.01% NP-40, 5 mM DTT).
The IKK enzyme preparation was diluted 1:50 (in-house-made preparation) plus test compound in DMSO (final concentration in well: 2%).
The assay procedures were as follows:
Incubation of enzyme and compound for 30 min;
pSer36-IkB Peptide (Substrate): 40 μM;
Incubation for 45 min and Addition of anti-pSer32-pSer36-IkB Peptid-antibody;
Incubation for 45 min and transfer to protein-G-coated plate;
Incubation for 90 min followed by 3× washing;
Addition of streptavidin-HRP, then incubation 45 min followed by 6× washing;
Addition of TMB and Incubation for 15 min; and
Stop solution and read using photometer.

[2] = system: IL-1β-induced NF-κB activation; test: NF-κB-Luciferase Reporter Mouse Model, dose response determination; format: in vivo, Balb/c female mice; conditions: for effect on IL-1β-induced NF-κB activity: intranasal dosing 0.3-10 mg/kg, FIGS. 1 and 2
Experimental: A. NF-κB-Luciferase Reporter Mouse Model Methods employed for mouse imaging studies with Compound (A) and Compound (B). General Description Compounds were used as nanomilled suspensions in 0.2% Tween-80 in PBS and were dosed through the intranasal route. Intranasal drug and inflammatory stimulus administration: Mice are anesthetized in 4% is isoflurane gas in oxygen. A volume of 25 μl is applied to each nostril and the mice are allowed to breathe in the suspension. Balb/c female mice at 6-8 weeks of age were used for studies in which AdV-NFκB-luciferase reporter was instilled in the lung. To imagine mice, they are anesthetized with 4% isoflurane in oxygen. Luciferin is delivered i.p. at a dose of 150 mg/kg. 10 minutes after luciferin injection, the animals are imaged in an IVIS200 system (Xenogen) with a one-minute bioluminescent exposure. Alternatively, 10-15 minutes post luciferin administration, mice are rapidly euthanized and internal tissues are dissected and imaged ex vivo. B. Dose Response Determination 1-2×10^8 pfu adenovirus-NFκB-luciferase is delivered intranasally 3-5 days prior to stimulation (i.n.) with an inflammatory stimulus (IL-1β or LPS). Animals are dosed i.n. with 0.3-10 mg/kg of compound 30 min—1 h prior to challenge with 0.5 μg LPS or 50 ng IL-1β. Animals are then imaged once or several times from 1 h to 24 h after the inflammatory stimulus is administered.

[3] = Pharmacokinetic procedures: compound levels in lung and plasma after intra-tracheal instillation; format: in vivo, Male Hartley guinea pigs; conditions: for systemic exposure after intratracheal administration: i.t. administration; for Kp at 1 h: male, Hartley, guinea pig, lung and plasma, other: intra-tracheal instillation, i.t. instillation 0.01-0.3 mg/kg, 1 h after dosing, depending on the dose, read-out: lung to plasma ratio
Experimental: C. Pharmacokinetic Procedures
Male Hartley guinea pigs (450-550 g) previously sensitized with ovalbumin were used for the determination of compound levels in lung and plasma. Nanomilled suspensions of Compound (A) and Compound (B) were dosed via intra-tracheal instillation at 0.01, 0.03, 0.1 and 0.3 mg/kg. One hour after dosing, animals were euthanized (Euthasol), and 1 mL blood samples were obtained by cardiac puncture and collected into heparin-coated syringes. Plasma was separated from the cellular component of the blood by centrifugation, and stored at −80° C. until assayed. Lungs were dissected out, blotted dry, weighted and stored in 20-25 mL glass vials individually at −80° C. until assayed for compound levels.
The lung to plasma ratio for Compound (A) ranges from 143 to 284 (depending on the dose) whereas the lung to plasma ratio for Compound (B) ranges from 13 to 44 (depending on the dose). These ratios were obtained by dividing the lung compound levels to that of the corresponding plasma levels at the same dose.

[4] = read-out: IC50 (nM) 1 mM ATP, 1 mM ATP
[5] = read-out: IC50 (nM) 50 μM ATP, 50 μM ATP

| Compound | IC50 [1, 4] [nM] | IC50 [1, 5] [nM] | ED50 ([2]; Mus musculus, intranasal nanomilled suspension, 0.3-10 mg/kg, IL-1β challenge, lung bioluminescence, read-out: estimated ED50, IL-1β-induced NF-κB activation) [mg/kg] | effect on IL-1β-induced NF-κB activity [2] | systemic exposure after oral administration [3] | systemic exposure after intratracheal administration [3] | Kp at 1 h [3] | lung exposure after i.t. instillation ([3]; 0.3 mg/kg i.t., FIG. 3) |
| --- | --- | --- | --- | --- | --- | --- | --- | --- |
| CNc1nccc(-c2cc3cc(C(=O)N[C@@H](CN(c4ccccc4)c4ncccn4)C(=O)O)ccc3[nH]2)n1 [(D)] | 3.8 | – | – | – | – | – | – | – |
| CNc1nccc(-c2cc3cc(C(=O)N[C@@H](CN(c4ccccc4)c4ccccn4)C(=O)OC)ccc3[nH]2)n1 [(C)] | 378 | 16.8 | – | – | – | – | – | – |
| CNc1nccc(-c2cc3cc(C(=O)N[C@@H](CN(c4ccccc4)c4ccccn4)C(=O)O)ccc3[nH]2)n1 [Compound (A), 2-{[2-(2-Methylamino-pyrimidin-4-yl)-1H-indole-5-carbonyl]-amino}-3-(phenyl-pyridin-2-yl-amino)-propionic acid] | 0.08 | 0.4 | ~1 | inhibited in a dose-dependent manner | low systemic exposure | low systemic exposure | 143 to 284 | – |
| CNc1nccc(-c2cc3cc(C(=O)N[C@@H](CN(c4ccccc4)c4ccccn4)C(=O)NOC)ccc3[nH]2)n1 [Compound (B)] | 56.4 | 0.8 | – | inhibited in a dose-dependent manner | highly systemically available | highly systemically distributed | 13 to 44 | low relative to Compound (A) |
